A word on the IC50: it is the concentration needed to halve the response being measured.

From ChEMBL document CHEMBL1131293, “N-[omega-(Tetralin-1-yl)alkyl] derivatives of 3,3-dimethylpiperidine are highly potent and selective sigma1 or sigma2 ligands” (J Med Chem, 1998) come the findings set out here.

A value given as a limit tells only on which side of the number the result lay.

Assay [1] has as its target Sigma non-opioid intracellular receptor 1 (Rattus norvegicus) (UniProt Q9R0C9). As to the kind of experiment: IC50 ratio; sigma 1 to sigma 2. To be noted: Cavia porcellus.
Assay [2] concerns the target Sigma 2 receptor. As to the kind of experiment: Evaluated for the binding affinity towards sigma 2 receptor by displacing the radioligand [3H]DTG in guinea-pig brain cortex. Also on record: species or system Cavia porcellus.
Assay [3] deals with Sigma non-opioid intracellular receptor 1 (Rattus norvegicus, UniProt Q9R0C9). As to the kind of experiment: Evaluated for the binding affinity towards sigma 1 receptor by displacing the radioligand [3H]-SKF- 10047 in whole rat brain membrane. It is filed as cell membranes.
Sequence of Sigma non-opioid intracellular receptor 1 (Q9R0C9 whole entry): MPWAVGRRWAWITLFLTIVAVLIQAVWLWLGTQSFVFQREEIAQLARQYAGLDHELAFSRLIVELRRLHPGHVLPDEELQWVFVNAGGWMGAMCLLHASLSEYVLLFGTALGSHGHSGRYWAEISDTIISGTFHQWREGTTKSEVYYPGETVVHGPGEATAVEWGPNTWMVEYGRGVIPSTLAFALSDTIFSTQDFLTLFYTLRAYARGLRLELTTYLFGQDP
Assay [4] addresses Sigma non-opioid intracellular receptor 1 (Rattus norvegicus) (UniProt Q9R0C9). As to the kind of experiment: IC50 ratio; sigma 2 to sigma 1. To be noted: Cavia porcellus.

Sequence of Sigma non-opioid intracellular receptor 1 (Rattus norvegicus) (Q9R0C9 whole entry): as above

As to `COc1ccc2c(c1)CCC2CCCN1CCCC(C)(C)C1` (centres undefined), the Ratio in assay [1] came to 4610. Also, the values for the IC50 in assay [2] and in assay [3] were 1.01 nM and 4660 nM, respectively.

Turning to `COc1cccc2c1CCCC2CCCN1CCCC(C)(C)C1` (single isomer, unassigned; (+)) [listing 1 of 2 here], in assay [4], the Ratio stood at 1340.

For `CC1(C)CCCN(CCCCC2CCCc3ccccc32)C1` (centres undefined), the Ratio in assay [4] was 8. The figures for the IC50 in assay [2] and in assay [3] were 5.5 nM and 0.69 nM, respectively.

Consider `COc1cccc2c1CCCC2CCCN1CCCC(C)(C)C1` (racemic) [listing 1 of 2 here], for which the half-inhibitory concentration (IC50) came out at 138 nM in assay [2] and 0.48 nM in assay [3].

With `CC1(C)CCCN(CCCCC2=CCCc3ccccc32)C1`, the Ratio in assay [1] is 8590. Moreover, the IC50 was 1.1 nM in assay [2] and 9450 nM in assay [3].

As to `COc1cccc2c1CCCC2CCCN1CCCC(C)(C)C1` (stereo in doubt; (-)-22) [listing 1 of 2 here], the figures for the IC50 in assay [2] and in assay [3] were 111 nM and 0.85 nM, respectively.

Take `COc1ccc2c(c1)CCCC2CCCN1CCCC(C)(C)C1` (centres undefined): the Ratio in assay [1] is over 114. Also, the IC50 in assay [2] is 88 nM; in assay [3] it was over 10000 nM.

`COc1ccc2c(c1)C(CCCCN1CCCC(C)(C)C1)CCC2` (centres undefined): the Ratio in assay [1] is 58. Further, the IC50 in assay [2] was found to be 0.44 nM; in assay [3], 25.6 nM.

In the case of `CC1(C)CCCN(CCC2CCCc3ccccc32)C1` (centres undefined), in assay [1], the Ratio is over 9090. The values for the IC50 in assay [2] and in assay [3] were 1.1 nM and over 10000 nM, respectively.

With `CC1(C)CCCN(CCCC2CCCc3c(O)cccc32)C1` (centres undefined), the Ratio in assay [4] is 2. Also, the IC50 came to 100 nM in assay [2] and 41 nM in assay [3].

Consider `COc1cccc2c1CCCC2CCCCN1CCCC(C)(C)C1` (centres undefined), for which the Ratio in assay [1] was 8. The IC50 in assay [2] was determined as 129 nM; in assay [3], 978 nM.

In the case of `CC1(C)CCCN(CCCCCC2CCCc3ccccc32)C1` (centres undefined), the Ratio in assay [1] was over 100000. The IC50 in assay [2] amounted to 0.008 nM; in assay [3], 1520 nM.

On to `CC1(C)CCCN(CCCCCc2ccccc2)C1`, for which the Ratio in assay [1] stood at 583. The figures for the IC50 in assay [2] and in assay [3] were 10 nM and 5830 nM, respectively.

On to `COc1cccc2c1CCC2CCCCN1CCCC(C)(C)C1` (centres undefined), for which the Ratio in assay [1] amounted to 2; in assay [4], 0.5. Besides, the results for the 50% inhibitory concentration (IC50) in assay [2] and in assay [3] were 4.6 nM and 9.3 nM, respectively.

With `COc1ccc2c(c1)CCCC2CCCCCN1CCCC(C)(C)C1` (centres undefined), the Ratio in assay [1] turned out to be 21. Moreover, the values for the IC50 in assay [2] and in assay [3] were 0.03 nM and 0.62 nM, respectively.

Consider `COc1ccc2c(c1)C(CCCN1CCCC(C)(C)C1)CCC2` (centres undefined), for which the Ratio in assay [4] stood at 5. Besides, the IC50 in assay [2] was determined as 109 nM; in assay [3], 22 nM.

In the case of `COc1cccc2c1CCCC2CCCN1CCCC(C)(C)C1` (racemic) [listing 2 of 2 here], in assay [4], the Ratio worked out at 287.

As to `CC1(C)CCCN(CCCC2CCc3ccccc32)C1` (centres undefined), the Ratio stood at 1.5 in assay [1] and 0.6 in assay [4]. Further, the IC50 is 4.5 nM in assay [2] and 6.9 nM in assay [3].

Consider `CC1(C)CCCN(CCCC2=CCc3ccccc32)C1`, for which the Ratio in assay [1] and in assay [4] was 1 each time. Also, the IC50 came out at 1.09 nM in assay [2] and 0.99 nM in assay [3].

With `COc1ccc2c(c1)CCCC2CCCCN1CCCC(C)(C)C1` (centres undefined), in assay [1], the Ratio is over 100000. In addition, the IC50 in assay [2] worked out at 0.016 nM; in assay [3] it was 2150 nM.

Turning to `COc1cccc2c1CCCC2CCCN1CCCC(C)(C)C1` (single isomer, unassigned; (+)) [listing 2 of 2 here], the half-maximal inhibitory concentration (IC50) in assay [2] came out at 119 nM; in assay [3], 0.089 nM.

Take `CC1(C)CCCN(CCCC2CCCc3ccccc32)C1` (centres undefined): the figures for the Ratio in assay [1] and in assay [4] were 2 and 0.5, respectively. Also, the results for the IC50 in assay [2] and in assay [3] were 135 nM and 252 nM, respectively.

With `COc1cccc2c1CCCC2CCCN1CCCC(C)(C)C1` (stereo in doubt; (-)-22) [listing 2 of 2 here], the Ratio in assay [4] is 131.
